According to patent publication US5547972A, “Therapeutic agents useful for treating inflammatory diseases” (The Boots Company PLC, priority 1991, dated 1996):
Structures can show the parent of a compound that is named as a salt. Where two headings read alike, the source gives them in different places.

Assays:
[1] = test system: platelet aggregation; details: in vitro; Il Farmaco, 44 (5), 495-502, 1989; cited from earlier work
[2] = test system: Zymosan Stimulated Macrophaqes; test: Test A: Inhibition of Arachidonic Acid Release from Zymosan Stimulated Macrophages; assay type: cell-based, mouse (female MF1); details: inhibition of arachidonic acid release, six concentrations (100, 50, 20, 10, 5 and 1 μM), 5 h with zymosan, read-out: Test A IC50
In short: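 Peritoneal macrophages from female MF1 mice, labelled overnight with [3H]-arachidonic acid (1.6 μCi/ml final), adherent cells pretreated 24 h with drug, then stimulated 5 h with fresh drug plus stimulus at 37° C. Released label counted by scintillation; net stimulated release inhibition at 1–100 μM gives IC50.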

[3] = test system: Carrageenan-induced rat paw oedema; test: Test B: Carrageenan-induced rat paw oedema test; assay type: in vivo, rat (female); details: inhibition of paw oedema, 1 h before carrageenan, 3 h after injection; for inhibition in vivo at 100 mg/kg: Rattus norvegicus, po, 3 h
Description: Carrageenan-induced rat paw oedema test
Female rats, weight range 125-150 g were fasted overnight. One of the hind legs of each animal was marked with a line at the connection between the cuboid/navicular and calcaneus/talus bones. Groups of six rats were orally dosed at 10 ml/kg, in random order, with a given dose of the test compound given as a solution or suspension in 10% (w/v) aqueous acacia solution.
One hour after dosing, 0.1 ml of 1% (w/v) sterile carrageenan λ in normal saline was injected deeply into the plantar surface of the marked hind foot of each rat. The volume of the foot (up to the marked line) was measured immediately after injection using duplicate water displacement readings. Three hours after injection the foot volume was measured again and the percentage increase in foot volume relative to the initial reading was calculated.
The increase in foot volume (i.e. the degree of oedema) in drug treated animals when compared with that in the drug untreated control gave the degree of inhibition of paw oedema by the drug.
Compounds were considered to be active in this test if they produced a 20% or greater inhibition of paw oedema in at least two out of three tests after oral dosing at 100 mg/kg. Statistical significance was assessed using the Student't test for single dose studies and Dunnett's test for multiple dose studies. More advantageous compounds were active in both Tests A and B,

[4] = alleged in literature; cited from earlier work
[5] = test system: mice; details: in mice; cited from earlier work

Compound | IC50 ([2]; Mus musculus, Macrophage, 5 h) [µM] | inhibition in vivo at 100 mg/kg [3] [%] | other results
CC(CCn1ccnc1)NCc1ccccc1 (centres unmarked) [Compound A] |  |  | inhibitory effect on platelet aggregation [1]: inhibitory effect on platelet aggregation in vitro
CCOC(=O)c1ccc(C(C)(C)NCCCn2ccnc2)cc1 [Example 77, Ethyl 4-{1-[3-(imidazol-1-yl)propylamino]-1-methylethyl}benzoate] | 82 | 23 | 
CCC(CC)(NCCCn1ccnc1)c1ccccc1 [Example 80, N-(1-Ethyl-1-phenylpropyl)-3-(imidazol-1-yl)propylamine] | 54 | 52 | 
CC(C)(NCCCn1cncc1CO)c1ccc(Cl)cc1 [Example 88, 1-{3-[1-(4-Chlorophenyl)-1-methylethylamino]propyl}imidazol-5-yl-methanol dihydrochloride] | 60 | 6 | 
CCC(c1ccc(Cl)cc1)N(C)CCCn1ccnc1 (centres unmarked) [Example 91, N-[1-(4-chlorophenyl)propyl]-3-(imidazol-1-yl)-N-methylpropylamine] | 62 | 58 | 
CCC(NCC(C)N1CCOCC1)c1ccc(Cl)c(Cl)c1 (stereo not drawn) [N-[2-(4-Morpholino)propyl]-α-ethyl-3,4-dichlorobenzylamine] |  |  | antiinflammatory activity [4]: antiinflanmmtory activity; undesirable side-effects [5]: wide range of undesirable side-effects in mice
N-[1-(4-Chlorophenyl)ethyl]-3-(4/5-methylimidazol-1-yl)propylamine [Example 54] |  |  | IC50 [2]: 12 µM; Test B % inhibition at 100 mg/kg ([3]; oral): 63%

Continued, in another order:

IC50 ([2]; Mus musculus, Macrophage, 5 h) [µM] | Compound | inhibition in vivo at 100 mg/kg [3] [%] | other results
47 | Cc1ccc(C(C)(C)NCCCn2ccnc2)cc1 [Example 75, 3-(Imidazol-1-yl)-N-[1-methyl-1-(p-tolyl)ethyl]propylamine dihydrochloride] | 42 | 
15 | CCC(CC)(NCCCn1ccnc1)c1ccc(Cl)cc1 [Example 76, 1-(4-Chlorophenyl)-1-ethyl-3'-(imidazol-1-yl)dipropylamine dihydrochloride] | 31 | 
20 | CCOC(=O)c1c(C)ncn1CCCNC(C)(C)c1ccc(Cl)cc1 [Example 78, Ethyl 1-{3-[1-(4-chlorophenyl)-1-methylethylamino]propyl)-4-methylimidazole-5-carboxylate] | 7 | 
16 | Clc1ccc(C2(NCCCn3ccnc3)CC2)cc1 [Example 82, N-[1-(4-Chlorophenyl)cycloprop-1-yl]-3-(imidazol-1-yl)propylamine dihydrochloride] | 38 | 
24 | CC(C)(NCCCn1cncc1CO)c1ccc(Cl)c(Cl)c1 [Example 84, 1-{3-[1-(3,4-Dichlorophenyl)-1-methylethylamino]propyl}imidazol-5-ylmethanol] | 19 | 
45 | CC(C)(NCCCn1cnc(CO)c1)c1ccc(-c2ccccc2)cc1 [Example 85, 1-{3-[1-(4-biphenylyl)-1-methylethylamino]propyl}imidazol-4-yl-methanol] | 0 | 
40 | CC(C)(NCCCCn1ccnc1)c1ccc(Cl)cc1 [Example 89, N-[1-(4-chlorophenyl)-1-methylethyl]-4-(imidazol-1-yl)butylamine] | 51 | 
45 | CC(=O)OCc1ncn(CCCNC(C)(C)c2ccc(Cl)cc2)c1C [Example 98, 1-{3-[1-(4-chlorophenyl)-1-methylethylamino]propyl}-5-methylimidazol-4-ylmethyl acetate dihydrochloride] | 4 | 
